# Test results as given in patent publication US20100197745A1, “GAMMA-GLUTAMYL TRANSPEPTIDASE INHIBITORS AND METHODS OF USE” (priority 2008, published 2010).
# Entries after “also recorded” stand apart in the source; their conditions may differ. Read-outs that look alike come from different tables or passages of the source. Residues, ends and D or L forms follow the SMILES beside them.
# Assays:
# [1] = target: T1, GGT isolated from human kidney (Homo sapiens, UniProt P19440); experiment: GGT transpeptidation kinetic assay (GpNA / glycyl-glycine) with GGT isolated from human kidney; type: biochemical; settings: for Michaelis constant of the substrate (Kglygly, KGpNA): human kidney GGT
# T1 construct: GGT was isolated from human kidney; tissue National Disease Research Interchange, Philadelphia, PA; host or cells: human kidney, Triton X-100 extract of microsomes
# Protocol: (§1) An assay method was developed to screen for inhibitors of GGT. The assays were conducted in 96-well plates. The final volume in each well was 100 μL. The assay buffer contained: 100 mM Na2HPO4 pH 7.4, with 3.2 mM KCI, 1.8 mM KH2PO4, and 27.5 mM NaCl. Each reaction contained 1 mM L-glutamic acid γ-4-nitroanilide HCI (GpNA) and 40 mM glycyl-glycine (Gly-Gly)(19). GGT is expressed on the cell surface and the assay was initiated by addition of 10^4 786-O cells (ATCC CRL-1932, a GGT-positive human renal cell adenocarcinoma line).
# (§2) GGT was isolated from human kidney (National Disease Research Interchange, Philadelphia, PA), male Sprague-Dawley rat kidney and female Balb/c mouse kidney. Tissue was homogenized in 4 volumes of 25 mM Tris pH 7.5, containing 0.33 M sucrose, 0.2 mM EDTA, 1 μM leupeptin and 1.4 μg/ml aprotinin. A 9000 g supernatant was spun at 100,000 g for 1 h. The microsomal pellet was homogenized in 25 mM Tris pH 7.35, 0.5% Triton X-100, 1 μM leupeptin, 1.4 μg/ml aprotinin then centrifuged again at 100,000 g for 1 h. The supernatant was assayed for GGT activity, aliquoted, and stored at −80° C. until further use. All solutions were maintained at 4° C. throughout the isolation. The specific activities of GGT were 3.4, 7.4, and 1.5 units/mg protein for human, rat, and mouse preparations, respectively. Prior to use in the GGT assay, the enzyme was diluted in phosphate-buffered saline (PBS) containing 0.025% Triton X-100 and 0.19 m Units of enzyme were used per assay unless otherwise indicated.
# (§3) The concentrations of the substrate GpNA and the acceptor Gly-Gly were varied as indicated. Purified GGT was added to initiate the assay. The reaction was monitored as described for the high throughput screening.
# Initial velocity data were first analyzed graphically using double-reciprocal plots of initial velocities versus substrate concentration and suitable secondary plots.
# Data for competitive and uncompetitive inhibition were fitted using Equations 1 and 2.
# GGT in NRK-52E cells = target: T2, GGT in NRK-52E cells (Rattus norvegicus, UniProt P07314); experiment: Inhibition of cell-surface GGT in rat kidney cell line; type: cell-based; settings: NRK-52E (FIG. 5B)
# T2 construct: NRK-52E (ATCC CRL-1571), a normal rat kidney cell line; host or cells: NRK-52E rat kidney cells
# Protocol: as §1
# (§4) LLC-PKI (ATCC CRL 1392), a pig kidney cell line, NRK-52E (ATCC CRL-1571), a normal rat kidney cell line, LLC-MK2 (ATCC CCL-7), a normal kidney monkey cell line, and 786-O cells were grown in complete Dulbecco's Modified Eagle's Medium (DMEM) supplemented with 5% FBS (Hyclone, Logan, Utah), and penicillin/streptomycin (50 U/mL, 50 μg/mL) (Invitrogen, Carlsbad, Calif.). NIH/3T3 cells transfected with cDNA encoding human GGT were described previously and were grown in DMEM/F12 containing 200 μg/mL of G418 (6). HK-2 (ATCC CRL-2190), a human cell line derived from immortalized normal proximal tubule cells, were grown in keratinocyte serum-free media (K-SFM) from ATCC (Manassas, Va.). The cells were trypsinized off the plates and suspended in PBS for the GGT assay.
# [2] = target: T3, human GGT expressed in Pichia pastoris (Homo sapiens, UniProt P19440); experiment: GGT kinetic assay with purified human GGT expressed in Pichia pastoris; type: biochemical
# T3 construct: The soluble domain of human GGT (amino acids 28-569) was amplified by PCR; His6 (TEV protease-cleavable) (N, cleaved yes); made in house; host or cells: Pichia pastoris strain X-33 (pPICZαA, plasmid pMW-102), secreted
# Excerpt: The soluble domain of human GGT (amino acids 28-569) was amplified by PCR. The forward primer introduced a EcoRI restriction site and a TEV protease-cleavable N-terminal His6 tag, while the reverse primer introduced a NotI restriction site after the stop codon of genomic GGT. The PCR product was digested with EcoRI and Not I and inserted into the corresponding sites of pPICZαA (Invitrogen), generating plasmid pMW-102. This construct was amplified in E. coli DH5α cells. The fidelity of the recombinant ORF was verified by sequencing (Oklahoma Medical Research Foundation's DNA Sequencing Core Facility, Oklahoma City, Okla.). The SacI-linearized plasmid, pMW-102, was purified and transformed into wild-type Pichia pastoris strain X-33, selected and induced as recommended by Invitrogen. Secreted, recombinant, His6-tagged, human GGT was collected from the media with a Ni-NTA column. The hexahistidine tag was cleaved with His6-tagged TEV protease. […]
# The concentrations of the substrate GpNA and the acceptor Gly-Gly were varied as indicated. […] The reaction was monitored as described for the high throughput screening.
# Initial velocity data were first analyzed graphically using double-reciprocal plots of initial velocities versus substrate concentration and suitable secondary plots. […]
# GGT in LLC-MK2 cells = experiment: Inhibition of cell-surface GGT in monkey kidney cell line; type: cell-based; settings: LLC-MK2 (FIG. 5B)
# Protocol: as §1, §4
# [3] = target: T4, human GGT expressed in mouse NIH3T3 fibroblasts (Homo sapiens, UniProt P19440); experiment: Inhibition of human GGT expressed in mouse NIH3T3 fibroblasts; type: cell-based; settings: NIH3T3 transfected with human GGT cDNA (FIG. 5B)
# T4 construct: expressed in transfected cells; host or cells: NIH/3T3 mouse fibroblasts, G418-selected
# Protocol: as §1, §4
# human kidney GGT = target: T5, human kidney GGT (Homo sapiens, UniProt P19440); experiment: Glutathione degradation by human kidney GGT; type: biochemical
# T5 construct: GGT was isolated from human kidney; tissue National Disease Research Interchange, Philadelphia, PA; host or cells: human kidney, Triton X-100 extract of microsomes
# Protocol: (§5) An incubation mixture contained 1 mM glutathione, 40 mM glycyl-glycine, and inhibitor in the GGT assay buffer. Reactions were initiated with the addition of 1.9 mU of GGT and incubated at 37° C. The final volume of the reaction was 100 μL. Aliquots of the reaction mixture were removed at the specified time points, immediately acidified with an equal volume of cold 4.31% 5-sulfosalicylic acid, and maintained at 4° C. until glutathione concentration was determined by the method of Tietze (21).
# GGT from mouse kidney = target: T6, GGT from mouse kidney (Mus musculus, UniProt Q60928); experiment: Inhibition of GGT isolated from mouse kidney; type: biochemical; settings: mouse kidney GGT (FIG. 5A)
# T6 construct: female Balb/c mouse kidney; from tissue; host or cells: female Balb/c mouse kidney, Triton X-100 extract of microsomes
# Protocol: as §2, §3
# [4] = target: T7, GGT in 786-O and HK-2 cells (Homo sapiens, UniProt P19440); experiment: Inhibition of cell-surface GGT in human kidney cell lines; type: cell-based; settings: 786-O and HK-2 (FIG. 5B)
# T7 construct: GGT is expressed on the cell surface; CRL-2190 (HK-2); host or cells: 786-O human renal adenocarcinoma cells; HK-2 human proximal tubule cells
# Protocol: as §1, §4
# GGT in LLC-PK1 cells = target: T8, GGT in LLC-PK1 cells (Sus scrofa, UniProt P20735); experiment: Inhibition of cell-surface GGT in pig kidney cell line; type: cell-based; settings: LLC-PK1 (FIG. 5B)
# T8 construct: LLC-PKI (ATCC CRL 1392), a pig kidney cell line; host or cells: LLC-PK1 pig kidney cells
# Protocol: as §1, §4
# GGT from rat kidney = target: T9, GGT from rat kidney (Rattus norvegicus, UniProt P07314); experiment: Glutathione degradation by rat kidney GGT; type: biochemical; settings: 1 mM glutathione, 40 mM glycylglycine (FIG. 6B)
# T9 construct: male Sprague-Dawley rat kidney; from tissue; host or cells: male Sprague-Dawley rat kidney, Triton X-100 extract of microsomes
# Protocol: as §5
# 786-O cells = experiment: Cytotoxicity assay (MTT, 72 hr) in dividing 786-O cells; type: cell-based
# Protocol: 786-O (ATCC CRL-1932), a human renal cell adenocarcinoma line, was plated in DMEM supplemented with 5% FBS and penicillin/streptomycin (50 U/mL, 50 ug/mL) at 10^3 cells per well in 96-well plates. The next day the medium was changed to fresh DMEM containing FBS, antibiotics and the test compound. Equivalent concentrations of DMSO were added to control wells. Cell viability was determined by the MTT assay 72 hr after the addition of the test compound (20).
# A two-tailed t-test was used to detect significant differences between OU749 inhibition of human GGT and inhibition of GGT from other species.
# [5] = target: T10, GGT isolated from rat kidney (Rattus norvegicus, UniProt P07314); experiment: Inhibition of GGT isolated from rat kidney; type: biochemical; settings: rat kidney GGT (FIG. 5A)
# T10 construct: male Sprague-Dawley rat kidney; from tissue; host or cells: male Sprague-Dawley rat kidney, Triton X-100 extract of microsomes
# Protocol: as §2, §3
# [6] = test system: metastatic melanoma to the liver; settings: acivicin used to deplete tumor GSH in combination with aggressive therapy (ref. 4); cited from earlier work
# [7] = appKi obtained by varying GpNA, glygly fixed at 40 mM, uncompetitive, read-out: Inhibition of Transpeptidation (Alpha Ki)
# T5 sequence (P19440 1-380 limits assumed): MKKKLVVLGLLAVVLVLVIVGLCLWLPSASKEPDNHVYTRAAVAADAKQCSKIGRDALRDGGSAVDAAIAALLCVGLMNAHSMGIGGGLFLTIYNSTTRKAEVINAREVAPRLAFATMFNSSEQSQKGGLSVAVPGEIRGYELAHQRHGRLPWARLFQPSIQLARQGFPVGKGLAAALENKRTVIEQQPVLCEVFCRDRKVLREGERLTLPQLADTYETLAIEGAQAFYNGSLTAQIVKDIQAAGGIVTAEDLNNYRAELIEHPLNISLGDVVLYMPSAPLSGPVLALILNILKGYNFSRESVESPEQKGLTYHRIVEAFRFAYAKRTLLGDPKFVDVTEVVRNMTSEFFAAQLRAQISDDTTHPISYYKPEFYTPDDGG
# T5 sequence (P19440 381-569 limits assumed): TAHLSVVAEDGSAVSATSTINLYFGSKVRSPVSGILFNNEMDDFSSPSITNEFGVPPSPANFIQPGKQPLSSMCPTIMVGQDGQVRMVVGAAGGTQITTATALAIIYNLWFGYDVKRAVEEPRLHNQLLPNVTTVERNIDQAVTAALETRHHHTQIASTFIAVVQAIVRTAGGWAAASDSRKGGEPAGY
# T1 sequence (P19440 1-380 limits assumed): as the sequence (P19440 1-380 limits assumed) above
# T1 sequence (P19440 381-569 limits assumed): as the sequence (P19440 381-569 limits assumed) above
# T3 sequence (P19440 28-569): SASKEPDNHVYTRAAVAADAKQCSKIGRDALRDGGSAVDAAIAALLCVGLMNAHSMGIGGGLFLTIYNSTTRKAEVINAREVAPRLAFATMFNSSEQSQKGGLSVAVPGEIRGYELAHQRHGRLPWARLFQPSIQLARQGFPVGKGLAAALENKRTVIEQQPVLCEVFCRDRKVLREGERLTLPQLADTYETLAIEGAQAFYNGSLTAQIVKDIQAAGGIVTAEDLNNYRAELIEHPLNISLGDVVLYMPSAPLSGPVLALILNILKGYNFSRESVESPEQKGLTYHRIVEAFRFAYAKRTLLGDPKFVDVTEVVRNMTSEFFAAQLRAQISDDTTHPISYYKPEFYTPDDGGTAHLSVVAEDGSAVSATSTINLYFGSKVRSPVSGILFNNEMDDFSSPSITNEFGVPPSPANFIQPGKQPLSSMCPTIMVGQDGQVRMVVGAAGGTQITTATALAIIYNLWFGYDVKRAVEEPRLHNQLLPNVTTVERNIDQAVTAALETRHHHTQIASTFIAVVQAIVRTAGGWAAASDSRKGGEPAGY
# T9 sequence (P07314 whole entry): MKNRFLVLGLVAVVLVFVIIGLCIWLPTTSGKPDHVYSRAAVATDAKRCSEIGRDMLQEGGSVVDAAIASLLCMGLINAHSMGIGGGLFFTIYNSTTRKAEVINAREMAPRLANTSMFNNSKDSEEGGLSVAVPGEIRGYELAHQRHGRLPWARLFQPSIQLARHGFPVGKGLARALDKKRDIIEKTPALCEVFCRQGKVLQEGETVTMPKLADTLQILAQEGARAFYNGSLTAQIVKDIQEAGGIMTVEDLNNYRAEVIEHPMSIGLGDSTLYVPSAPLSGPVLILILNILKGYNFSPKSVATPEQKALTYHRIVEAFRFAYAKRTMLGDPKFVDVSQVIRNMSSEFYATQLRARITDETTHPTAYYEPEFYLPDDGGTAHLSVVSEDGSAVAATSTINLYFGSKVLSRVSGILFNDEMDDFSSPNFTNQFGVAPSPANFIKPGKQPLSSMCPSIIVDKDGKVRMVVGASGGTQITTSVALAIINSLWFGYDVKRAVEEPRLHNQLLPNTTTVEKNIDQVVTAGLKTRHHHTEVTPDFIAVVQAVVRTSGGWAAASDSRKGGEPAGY
# T7 sequence (P19440 whole entry): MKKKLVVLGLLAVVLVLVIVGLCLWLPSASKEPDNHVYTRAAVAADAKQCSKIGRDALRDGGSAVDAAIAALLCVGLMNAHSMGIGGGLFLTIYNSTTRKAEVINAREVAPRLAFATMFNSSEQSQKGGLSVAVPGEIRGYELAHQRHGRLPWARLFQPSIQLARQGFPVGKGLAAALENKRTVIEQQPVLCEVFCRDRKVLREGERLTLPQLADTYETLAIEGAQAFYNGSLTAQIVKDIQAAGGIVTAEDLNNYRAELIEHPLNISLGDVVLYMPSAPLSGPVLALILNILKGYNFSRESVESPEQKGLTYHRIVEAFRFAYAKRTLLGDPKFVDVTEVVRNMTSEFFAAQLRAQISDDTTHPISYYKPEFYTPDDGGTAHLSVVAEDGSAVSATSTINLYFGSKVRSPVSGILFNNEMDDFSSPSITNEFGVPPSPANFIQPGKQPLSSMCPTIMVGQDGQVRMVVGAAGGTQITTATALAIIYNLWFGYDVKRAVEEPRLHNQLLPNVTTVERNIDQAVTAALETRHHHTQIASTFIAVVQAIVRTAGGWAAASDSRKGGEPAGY
# T4 sequence (P19440 whole entry): as above
# T6 sequence (Q60928 whole entry): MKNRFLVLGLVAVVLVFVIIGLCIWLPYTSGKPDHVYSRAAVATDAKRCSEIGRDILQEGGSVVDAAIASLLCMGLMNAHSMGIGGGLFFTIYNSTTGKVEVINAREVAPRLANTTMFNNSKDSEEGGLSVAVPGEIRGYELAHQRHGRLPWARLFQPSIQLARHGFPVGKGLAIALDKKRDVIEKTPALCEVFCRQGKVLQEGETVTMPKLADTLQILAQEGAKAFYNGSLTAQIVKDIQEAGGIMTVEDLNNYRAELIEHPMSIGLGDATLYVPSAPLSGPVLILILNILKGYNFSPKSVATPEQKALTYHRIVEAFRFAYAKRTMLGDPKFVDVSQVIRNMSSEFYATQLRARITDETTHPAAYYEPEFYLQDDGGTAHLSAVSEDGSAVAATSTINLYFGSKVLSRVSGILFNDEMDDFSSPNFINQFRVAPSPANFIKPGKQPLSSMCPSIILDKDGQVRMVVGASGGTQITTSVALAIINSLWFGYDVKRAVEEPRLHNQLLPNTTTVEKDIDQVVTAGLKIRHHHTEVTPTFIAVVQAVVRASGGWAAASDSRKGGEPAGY
# T10 sequence (P07314 whole entry): as the sequence (P07314 whole entry) above
structure (smiles),measurement,setting,value
COc1ccc(Cc2nnc(NS(=O)(=O)c3ccc([N+](=O)[O-])cc3)s2)cc1 [Compound 7],Ki,[1]; [7],114 ± 8.4 µM
"N[C@@H](CCC(=O)Nc1ccc([N+](=O)[O-])cc1)C(=O)O [GpNA, L-glutamic acid γ-4-nitroanilide HCI, reference compound]","Michaelis constant of the substrate (Kglygly, KGpNA)",[1],1.07 ± 0.04 mM
"NCC(=O)NCC(=O)O [glygly, glycyl-glycine, reference compound] (H-Gly-Gly-OH)","Michaelis constant of the substrate (Kglygly, KGpNA)",[1],11.4 ± 1.2 mM
O=S(=O)(Nc1nnc(Cc2ccccc2)s1)c1ccc(Cl)cc1 [Compound 4],Ki,[1]; [7],75.9 ± 1.7 µM
COc1ccc(S(=O)(=O)Nc2nnc(Cc3ccc(OC)c(OC)c3)s2)cc1 [Compound 9],Ki,[1]; [7],1110 µM
"COc1ccc(Cc2nnc(NS(=O)(=O)c3ccccc3)s2)cc1 [Compound 3, N-[5-(4-methoxybenzyl)-1,3,4-thiadiazol-2-yl]benzenesulfonamide]",inhibition of GGT in rat kidney cell line,GGT in NRK-52E cells,only weakly inhibited
same,Ki,"[2]; GpNA varied, 40 mM glycylglycine, read-out: appKi obtained varying GpNA",58.2 ± 1.6 µM
same,Ki,"[2]; glygly varied, 3 mM GpNA, read-out: appKi as a competitive inhibitor of glygly",25 ± 2 µM
same,inhibition of GGT in monkey kidney cell line,GGT in LLC-MK2 cells,only weakly inhibited
same,inhibition of human GGT expressed in mouse cells,[3],inhibited by compound 3 to the same extent as human GGT expressed in other human cells
same,inhibition of cleavage of glutathione,"human kidney GGT; 1 mM glutathione, 40 mM glycylglycine, 62.5-500 uM compound (FIG. 6A)",inhibited the cleavage of glutathione in a dose-dependent manner; also recorded: inhibited glutathione breakdown by human GGT
same,inhibition of cleavage of oxidized glutathione (GSSG),"human kidney GGT; human GGT, data not shown",inhibited the cleavage of oxidized glutathione
same,fold less potent than against GGT isolated from human kidney,GGT from mouse kidney,10 fold
same,inhibition of GGT isolated from human kidney,"[1]; 0-125 μM, 40 mM glycylglycine (FIG. 3)",inhibited GGT isolated from human kidney in a dose-dependent manner
same,type of inhibition with respect to GpNA,"[1]; GpNA varied, glygly 40 mM",uncompetitive
same,Ki,[1]; [7],73.8 ± 2.5 µM
same,Ki,"[1]; fit of data of FIGS. 4A-D to the equation for noncompetitive inhibition, read-out: Ki binding to the E form of the enzyme",> 200 µM
same,type of inhibition with respect to glygly,"[1]; glygly varied, GpNA 3 mM",competitive
same,Ki,"[1]; glygly varied, GpNA maintained at 3 mM, read-out: Ki, competitive with respect to glygly (intrinsic value)",17.6 ± 3.8 µM
same,weaker binding to the E form,[1]; relative to binding in the presence of the γ-glutamyl moiety,> 10 fold
same,inhibition of GGT in human kidney cell lines,[4],dose-dependent inhibition
same,inhibition of GGT in pig kidney cell line,GGT in LLC-PK1 cells,not inhibited
same,inhibition of degradation of glutathione,GGT from rat kidney,unable to inhibit; also recorded: did not inhibit
same,fold less toxic than acivicin,786-O cells; 786-O cells in log growth,more than 150 fold
same,toxicity relative to acivicin,786-O cells; 786-O cells in log growth,at least an order of magnitude less toxic than acivicin
same,fold less toxic than acivicin,"786-O cells; 786-O cells in log growth, listed as compound 3",150 fold
same,LD50,"786-O cells; dividing 786-O cells, 3 days with test compound, MTT",128 µM
same,fold less potent than against GGT isolated from human kidney,[5],7 fold
"N[C@H](C(=O)O)[C@@H]1CC(Cl)=NO1 [Acivicin, acivicin, reference compound]",LD50,"786-O cells; human, 72 h",0.81 µM
same,"complete cure of metastatic melanoma to the liver, share of test animals",[6],90%
